According to ChEMBL document CHEMBL1240295, “Specificity and mechanism of action of some commonly used protein kinase inhibitors” (Biochem J, 2000):

What was measured:
[1] = molecular target: T1, Ribosomal protein S6 kinase alpha-5 (Homo sapiens, UniProt O75582); assay: Inhibition of His-tagged human MSK1 expressed in Sf9 cells at 20 uM; values are per cent of control
Bos taurus [2] = species on record: Bos taurus; assay: Inhibition of bovine heart PKA at 20 uM; values are per cent of control
[3] = molecular target: Mitogen-activated protein kinase 11 (Homo sapiens) (UniProt Q15759); assay: Inhibition of His-tagged human SAPK2b/p38b2 expressed in Escherichia coli at 20 uM; values are per cent of control
[4] = molecular target: T2, Serine/threonine-protein kinase Chk1 (Homo sapiens) (UniProt O14757); assay: Inhibition of His-tagged human CHK1 expressed in Escherichia coli at 20 uM; values are per cent of control
T2 sequence (whole entry): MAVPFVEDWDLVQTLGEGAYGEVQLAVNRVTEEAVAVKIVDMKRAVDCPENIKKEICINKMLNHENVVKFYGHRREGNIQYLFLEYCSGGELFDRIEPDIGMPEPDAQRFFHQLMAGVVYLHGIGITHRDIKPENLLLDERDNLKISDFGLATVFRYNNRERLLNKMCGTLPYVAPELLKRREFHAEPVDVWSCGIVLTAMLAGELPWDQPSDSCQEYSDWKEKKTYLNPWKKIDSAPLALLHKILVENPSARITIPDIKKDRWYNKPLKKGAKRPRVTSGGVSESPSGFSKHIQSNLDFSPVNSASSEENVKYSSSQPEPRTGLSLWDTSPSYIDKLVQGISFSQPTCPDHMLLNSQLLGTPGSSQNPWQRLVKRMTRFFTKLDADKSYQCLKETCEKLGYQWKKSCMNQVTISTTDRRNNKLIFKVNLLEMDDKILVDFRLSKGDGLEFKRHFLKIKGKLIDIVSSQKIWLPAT

[5] = molecular target: T3, Mitogen-activated protein kinase 13 (Homo sapiens) (UniProt O15264); assay: Inhibition of His-tagged human SAPK4/p38delta expressed in Escherichia coli at 20 uM; conditions: values are per cent of control
T3 sequence (whole entry): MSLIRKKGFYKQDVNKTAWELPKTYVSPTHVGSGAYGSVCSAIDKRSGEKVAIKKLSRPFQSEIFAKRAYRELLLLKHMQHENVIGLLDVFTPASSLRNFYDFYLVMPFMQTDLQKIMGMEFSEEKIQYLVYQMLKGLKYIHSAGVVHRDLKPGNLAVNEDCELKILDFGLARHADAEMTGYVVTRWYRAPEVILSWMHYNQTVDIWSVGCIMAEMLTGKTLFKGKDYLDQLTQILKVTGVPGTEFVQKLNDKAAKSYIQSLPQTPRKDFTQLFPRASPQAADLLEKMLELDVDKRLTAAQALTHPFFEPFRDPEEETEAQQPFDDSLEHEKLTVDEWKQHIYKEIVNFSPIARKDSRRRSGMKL

Rattus norvegicus [6] = species on record: Rattus norvegicus; assay: Inhibition of rat liver AMPK at 20 uM; values are per cent of control
Oryctolagus cuniculus [7] = species on record: Oryctolagus cuniculus; assay: Inhibition of PHK from rabbit skeletal muscle at 20 uM; values are per cent of control; conditions: Muscle tissue
[8] = molecular target: T4, Ribosomal protein S6 kinase beta-1 (Homo sapiens, UniProt P23443); assay: Inhibition of His-tagged human S6K1 expressed in Escherichia coli at 20 uM; values are per cent of control
[9] = molecular target: T5, Casein kinase II (Homo sapiens) (UniProt P67870+P68400+P19784); assay: Inhibition of His-tagged human CK2 expressed in Sf9 cells at 20 uM; conditions: values are per cent of control
[10] = molecular target: Serine/threonine-protein kinase N2 (Homo sapiens) (UniProt Q16513); conditions: HEK293, 20 uM
Description: Inhibition of His-tagged human PRK2 expressed in HEK293 cells at 20 uM

[11] = molecular target: Mitogen-activated protein kinase 8 (Homo sapiens) (UniProt P45983); assay: Inhibition of His-tagged human JNK1a1/SAPK1c expressed in Escherichia coli at 20 uM; values are per cent of control
[12] = molecular target: Mitogen-activated protein kinase 1 (Homo sapiens) (UniProt P28482); assay: Inhibition of His-tagged human MAPK2/ERK2 expressed in Escherichia coli at 50 uM; values are per cent of control
[13] = molecular target: Glycogen synthase kinase-3 beta (Homo sapiens, UniProt P49841); assay: Inhibition of His-tagged human GSK3b expressed in Sf21 cells at 50 uM; values are per cent of control
[14] = molecular target: T4, Ribosomal protein S6 kinase beta-1; assay: Inhibition of His-tagged human S6K1 expressed in Escherichia coli at 50 uM; values are per cent of control
[15] = molecular target: Mitogen-activated protein kinase 14 (Homo sapiens) (UniProt Q16539); assay: Inhibition of His-tagged human SAPK2a/p38 expressed in Escherichia coli at 50 uM; values are per cent of control
Oryctolagus cuniculus [16] = species on record: Oryctolagus cuniculus; assay: Inhibition of PHK from rabbit skeletal muscle at 50 uM; values are per cent of control; conditions: Muscle tissue
[17] = molecular target: T6, Serine/threonine-protein kinase Sgk1 (Homo sapiens) (UniProt O00141); assay: Inhibition of His-tagged human SGK expressed in Sf9 cells at 50 uM; values are per cent of control
T6 sequence (whole entry): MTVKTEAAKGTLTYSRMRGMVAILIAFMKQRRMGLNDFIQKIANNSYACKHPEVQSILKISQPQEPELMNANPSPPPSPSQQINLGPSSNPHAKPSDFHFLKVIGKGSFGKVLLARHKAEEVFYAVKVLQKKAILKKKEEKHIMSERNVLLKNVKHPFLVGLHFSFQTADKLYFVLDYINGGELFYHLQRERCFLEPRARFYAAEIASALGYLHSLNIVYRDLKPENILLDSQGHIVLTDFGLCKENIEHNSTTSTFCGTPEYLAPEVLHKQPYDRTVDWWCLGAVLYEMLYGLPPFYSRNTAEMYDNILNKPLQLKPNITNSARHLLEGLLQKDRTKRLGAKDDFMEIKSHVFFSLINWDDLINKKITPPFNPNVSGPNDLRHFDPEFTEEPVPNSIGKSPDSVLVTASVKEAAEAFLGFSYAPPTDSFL

[18] = molecular target: T5, Casein kinase II (Homo sapiens); assay: Inhibition of His-tagged human CK2 expressed in Sf9 cells at 50 uM; values are per cent of control
[19] = molecular target: Mitogen-activated protein kinase 8 (Homo sapiens) (UniProt P45983); assay: Inhibition of His-tagged human JNK1a1/SAPK1c expressed in Escherichia coli at 50 uM; values are per cent of control
[20] = molecular target: T2, Serine/threonine-protein kinase Chk1 (Homo sapiens); assay: Inhibition of His-tagged human CHK1 expressed in Escherichia coli at 50 uM; values are per cent of control
[21] = molecular target: T3, Mitogen-activated protein kinase 13 (Homo sapiens); assay: Inhibition of His-tagged human SAPK4/p38delta expressed in Escherichia coli at 50 uM; values are per cent of control
Oryctolagus cuniculus [22] = species on record: Oryctolagus cuniculus; assay: Inhibition of rabbit MKK1 expressed in Escherichia coli at 50 uM; values are per cent of control
Bos taurus [23] = species on record: Bos taurus; assay: Inhibition of bovine heart PKA at 50 uM; values are per cent of control
[24] = molecular target: Protein kinase C alpha type (Homo sapiens, UniProt P17252); assay: Inhibition of His-tagged human PKCalpha expressed in Escherichia coli at 50 uM; values are per cent of control
[25] = molecular target: MAP kinase-activated protein kinase 2 (Homo sapiens, UniProt P49137); assay: Inhibition of His-tagged human MAPKAPK2 expressed in Escherichia coli at 50 uM; values are per cent of control
Rattus norvegicus [26] = species on record: Rattus norvegicus; assay: Inhibition of rat liver AMPK at 50 uM; values are per cent of control
[27] = molecular target: [Pyruvate dehydrogenase (acetyl-transferring)] kinase isozyme 1, mitochondrial (Homo sapiens) (UniProt Q15118); assay: Inhibition of His-tagged human PDK1 expressed in Sf21 cells at 50 uM; conditions: values are per cent of control
[28] = molecular target: Mitogen-activated protein kinase 11 (Homo sapiens) (UniProt Q15759); assay: Inhibition of His-tagged human SAPK2b/p38b2 expressed in Escherichia coli at 50 uM; values are per cent of control
[29] = molecular target: T7, Mitogen-activated protein kinase 12 (Homo sapiens) (UniProt P53778); assay: Inhibition of His-tagged human SAPK3/p38gamma expressed in Escherichia coli at 50 uM; values are per cent of control
T7 sequence (whole entry): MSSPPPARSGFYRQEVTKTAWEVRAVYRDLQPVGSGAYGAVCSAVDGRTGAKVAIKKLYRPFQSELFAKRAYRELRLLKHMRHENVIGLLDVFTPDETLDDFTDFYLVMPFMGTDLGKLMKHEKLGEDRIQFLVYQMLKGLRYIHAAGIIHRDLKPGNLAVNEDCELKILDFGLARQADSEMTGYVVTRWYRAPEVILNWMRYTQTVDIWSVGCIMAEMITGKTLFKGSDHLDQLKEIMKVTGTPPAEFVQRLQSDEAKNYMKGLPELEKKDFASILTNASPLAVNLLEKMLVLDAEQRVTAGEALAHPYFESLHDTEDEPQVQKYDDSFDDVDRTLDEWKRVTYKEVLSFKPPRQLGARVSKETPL

[30] = molecular target: Rho-associated protein kinase 2 (Rattus norvegicus) (UniProt Q62868); assay: Inhibition of rat ROCK2 expressed in Sf9 cells at 50 uM; conditions: values are per cent of control
[31] = molecular target: RAC-alpha serine/threonine-protein kinase (Homo sapiens) (UniProt P31749); assay: Inhibition of human PKBalpha expressed in SF9 cells at 50 uM; values are per cent of control
[32] = molecular target: T1, Ribosomal protein S6 kinase alpha-5; assay: Inhibition of His-tagged human MSK1 expressed in Sf9 cells at 50 uM; values are per cent of control
Oryctolagus cuniculus [33] = species on record: Oryctolagus cuniculus; assay: Inhibition of MAPKAPK1b from rabbit skeletal muscle at 50 uM; values are per cent of control; conditions: Muscle tissue

Mitogen-activated protein kinase 8 (Homo sapiens), sequence (P45983 whole entry): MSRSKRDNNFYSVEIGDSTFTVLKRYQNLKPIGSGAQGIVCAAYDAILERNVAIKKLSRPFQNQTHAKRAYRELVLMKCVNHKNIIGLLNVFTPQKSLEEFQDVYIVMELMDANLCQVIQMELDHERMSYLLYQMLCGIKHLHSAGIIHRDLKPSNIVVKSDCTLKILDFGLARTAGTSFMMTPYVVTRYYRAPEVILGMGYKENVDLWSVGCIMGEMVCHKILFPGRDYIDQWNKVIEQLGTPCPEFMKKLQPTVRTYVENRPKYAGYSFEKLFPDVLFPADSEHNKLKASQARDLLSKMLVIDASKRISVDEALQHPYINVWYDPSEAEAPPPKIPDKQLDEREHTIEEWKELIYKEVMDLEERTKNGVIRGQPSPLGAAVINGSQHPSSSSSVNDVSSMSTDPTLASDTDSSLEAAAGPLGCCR
Mitogen-activated protein kinase 11 (Homo sapiens), sequence (Q15759 whole entry): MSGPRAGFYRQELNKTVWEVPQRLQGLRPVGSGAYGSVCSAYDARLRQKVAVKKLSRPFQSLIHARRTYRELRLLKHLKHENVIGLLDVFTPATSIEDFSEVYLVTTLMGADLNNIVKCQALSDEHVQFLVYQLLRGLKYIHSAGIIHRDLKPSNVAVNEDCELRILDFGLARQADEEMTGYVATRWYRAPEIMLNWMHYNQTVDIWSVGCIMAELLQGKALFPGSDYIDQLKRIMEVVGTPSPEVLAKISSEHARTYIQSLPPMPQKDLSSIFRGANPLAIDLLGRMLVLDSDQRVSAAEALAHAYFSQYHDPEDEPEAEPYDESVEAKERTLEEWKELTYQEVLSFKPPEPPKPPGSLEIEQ
T4 sequence (P23443 whole entry, looked up): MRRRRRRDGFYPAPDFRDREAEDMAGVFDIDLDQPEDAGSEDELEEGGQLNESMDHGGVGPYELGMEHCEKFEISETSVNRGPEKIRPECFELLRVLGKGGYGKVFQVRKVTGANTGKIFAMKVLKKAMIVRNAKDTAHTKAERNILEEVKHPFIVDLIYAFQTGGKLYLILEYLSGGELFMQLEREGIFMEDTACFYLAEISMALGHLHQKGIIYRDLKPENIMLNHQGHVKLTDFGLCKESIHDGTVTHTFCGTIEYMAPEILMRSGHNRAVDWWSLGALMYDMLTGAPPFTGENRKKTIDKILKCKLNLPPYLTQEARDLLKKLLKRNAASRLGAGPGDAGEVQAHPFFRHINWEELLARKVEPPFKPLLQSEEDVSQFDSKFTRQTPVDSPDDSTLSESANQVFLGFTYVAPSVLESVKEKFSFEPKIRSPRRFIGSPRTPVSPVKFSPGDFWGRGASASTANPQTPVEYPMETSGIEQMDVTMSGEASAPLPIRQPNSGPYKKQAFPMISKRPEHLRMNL
T1 sequence (O75582 whole entry, looked up): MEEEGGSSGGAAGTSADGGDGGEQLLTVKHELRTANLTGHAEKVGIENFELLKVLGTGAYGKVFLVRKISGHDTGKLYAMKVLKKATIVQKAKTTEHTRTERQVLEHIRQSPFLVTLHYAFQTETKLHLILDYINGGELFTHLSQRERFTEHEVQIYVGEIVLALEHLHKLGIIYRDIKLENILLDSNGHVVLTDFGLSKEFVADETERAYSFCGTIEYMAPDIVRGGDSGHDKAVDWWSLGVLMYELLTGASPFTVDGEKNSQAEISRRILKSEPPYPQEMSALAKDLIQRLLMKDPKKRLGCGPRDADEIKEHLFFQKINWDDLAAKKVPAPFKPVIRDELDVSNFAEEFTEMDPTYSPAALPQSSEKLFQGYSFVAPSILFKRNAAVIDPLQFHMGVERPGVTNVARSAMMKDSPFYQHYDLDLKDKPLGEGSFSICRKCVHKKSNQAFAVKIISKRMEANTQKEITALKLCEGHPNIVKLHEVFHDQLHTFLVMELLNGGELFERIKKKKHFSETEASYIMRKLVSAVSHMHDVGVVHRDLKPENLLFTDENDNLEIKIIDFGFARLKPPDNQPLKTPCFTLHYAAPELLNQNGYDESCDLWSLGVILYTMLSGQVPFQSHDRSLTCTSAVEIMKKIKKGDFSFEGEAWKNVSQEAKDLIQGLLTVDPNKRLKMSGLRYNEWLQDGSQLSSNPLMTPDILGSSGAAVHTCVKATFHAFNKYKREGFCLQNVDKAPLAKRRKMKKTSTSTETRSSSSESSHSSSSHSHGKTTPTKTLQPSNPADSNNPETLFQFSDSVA
MAP kinase-activated protein kinase 2, sequence (P49137 whole entry, looked up): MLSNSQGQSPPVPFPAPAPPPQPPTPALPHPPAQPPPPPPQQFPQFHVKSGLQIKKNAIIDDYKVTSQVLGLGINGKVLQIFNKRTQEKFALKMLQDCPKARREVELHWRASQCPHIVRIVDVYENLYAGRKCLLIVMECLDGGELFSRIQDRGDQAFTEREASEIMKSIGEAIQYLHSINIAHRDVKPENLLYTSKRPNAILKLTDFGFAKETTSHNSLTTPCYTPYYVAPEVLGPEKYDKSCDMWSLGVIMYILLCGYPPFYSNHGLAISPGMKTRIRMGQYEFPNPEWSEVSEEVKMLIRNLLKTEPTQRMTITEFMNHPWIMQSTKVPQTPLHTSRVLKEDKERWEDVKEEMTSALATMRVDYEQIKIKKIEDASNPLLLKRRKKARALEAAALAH
Rho-associated protein kinase 2 (Rattus norvegicus), sequence (Q62868 whole entry, looked up): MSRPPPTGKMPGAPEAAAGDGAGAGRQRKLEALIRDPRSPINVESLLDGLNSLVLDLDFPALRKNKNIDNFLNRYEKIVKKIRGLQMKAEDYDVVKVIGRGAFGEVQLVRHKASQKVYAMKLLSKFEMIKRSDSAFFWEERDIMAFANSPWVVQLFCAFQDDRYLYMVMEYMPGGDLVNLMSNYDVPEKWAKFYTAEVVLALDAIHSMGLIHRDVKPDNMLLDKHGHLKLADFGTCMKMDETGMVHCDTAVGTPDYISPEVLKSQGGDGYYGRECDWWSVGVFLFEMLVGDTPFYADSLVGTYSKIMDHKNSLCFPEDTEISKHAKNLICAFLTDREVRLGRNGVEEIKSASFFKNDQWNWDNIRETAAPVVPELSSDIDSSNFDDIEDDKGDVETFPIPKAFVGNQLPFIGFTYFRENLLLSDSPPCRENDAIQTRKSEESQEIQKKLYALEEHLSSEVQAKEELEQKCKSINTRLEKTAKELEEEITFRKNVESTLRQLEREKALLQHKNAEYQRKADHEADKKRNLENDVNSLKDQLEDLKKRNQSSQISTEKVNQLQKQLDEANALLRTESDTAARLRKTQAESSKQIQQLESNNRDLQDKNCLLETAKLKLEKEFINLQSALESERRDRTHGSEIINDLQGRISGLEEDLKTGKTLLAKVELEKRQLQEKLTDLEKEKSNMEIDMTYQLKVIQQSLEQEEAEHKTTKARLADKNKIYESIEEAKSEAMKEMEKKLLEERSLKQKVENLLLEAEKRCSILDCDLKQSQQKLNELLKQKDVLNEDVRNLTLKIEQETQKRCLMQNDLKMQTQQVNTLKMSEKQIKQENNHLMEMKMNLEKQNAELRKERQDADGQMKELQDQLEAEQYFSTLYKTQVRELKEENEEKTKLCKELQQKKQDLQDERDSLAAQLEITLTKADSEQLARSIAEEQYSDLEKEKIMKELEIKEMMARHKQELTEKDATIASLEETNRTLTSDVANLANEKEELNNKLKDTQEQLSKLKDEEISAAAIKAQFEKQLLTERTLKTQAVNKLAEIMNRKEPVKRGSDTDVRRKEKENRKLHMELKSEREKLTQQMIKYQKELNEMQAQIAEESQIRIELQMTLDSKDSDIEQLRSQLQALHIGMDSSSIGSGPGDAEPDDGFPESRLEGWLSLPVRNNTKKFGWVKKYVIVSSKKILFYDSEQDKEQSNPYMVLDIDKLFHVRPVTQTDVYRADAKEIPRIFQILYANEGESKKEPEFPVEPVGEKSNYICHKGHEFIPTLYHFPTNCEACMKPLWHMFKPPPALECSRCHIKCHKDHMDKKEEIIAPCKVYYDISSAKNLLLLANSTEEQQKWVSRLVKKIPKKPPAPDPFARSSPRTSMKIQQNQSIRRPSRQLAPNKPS
Mitogen-activated protein kinase 1 (Homo sapiens), sequence (P28482 whole entry): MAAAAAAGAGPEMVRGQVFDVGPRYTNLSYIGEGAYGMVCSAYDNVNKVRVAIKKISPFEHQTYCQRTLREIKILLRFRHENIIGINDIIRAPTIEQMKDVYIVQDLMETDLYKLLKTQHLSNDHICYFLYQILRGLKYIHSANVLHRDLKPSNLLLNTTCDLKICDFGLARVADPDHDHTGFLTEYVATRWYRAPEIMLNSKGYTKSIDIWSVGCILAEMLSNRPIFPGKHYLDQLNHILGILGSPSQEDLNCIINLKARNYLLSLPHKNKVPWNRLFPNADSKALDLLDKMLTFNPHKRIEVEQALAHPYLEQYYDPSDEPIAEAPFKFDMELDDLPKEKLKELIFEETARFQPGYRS
RAC-alpha serine/threonine-protein kinase (Homo sapiens), sequence (P31749 whole entry): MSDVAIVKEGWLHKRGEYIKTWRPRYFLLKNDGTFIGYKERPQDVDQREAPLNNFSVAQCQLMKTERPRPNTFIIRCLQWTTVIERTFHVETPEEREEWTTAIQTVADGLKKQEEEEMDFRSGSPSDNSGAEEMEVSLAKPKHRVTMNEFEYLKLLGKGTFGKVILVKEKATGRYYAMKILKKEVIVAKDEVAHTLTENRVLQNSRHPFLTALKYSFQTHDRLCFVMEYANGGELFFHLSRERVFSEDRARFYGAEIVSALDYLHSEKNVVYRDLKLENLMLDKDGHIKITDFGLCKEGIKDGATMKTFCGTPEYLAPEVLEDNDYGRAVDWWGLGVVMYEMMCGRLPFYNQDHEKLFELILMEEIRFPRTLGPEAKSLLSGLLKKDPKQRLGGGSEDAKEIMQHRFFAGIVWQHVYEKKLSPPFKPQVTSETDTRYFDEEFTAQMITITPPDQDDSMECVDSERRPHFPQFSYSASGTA

## O=S(=O)(c1cccc2cnccc12)N1CCCNCC1
[1]
  residual activity: 19%
Bos taurus [2]
  residual activity: 35%
[3]
  residual activity: 97%
[4]
  residual activity: 82%
[5]
  residual activity: 103%
Rattus norvegicus [6]
  residual activity: 77%
Oryctolagus cuniculus [7]
  level, % of control: 58%
[8]
  residual activity: 32%
[9]
  residual activity: 102%
[10]
  inhibition: 15%
[11]
  residual activity: 96%

## COc1cccc(-c2cc(=O)c3ccccc3o2)c1N
[12]
  residual activity: 85%
[13]
  residual activity: 101%
[14]
  residual activity: 100%
[15]
  residual activity: 85%
Oryctolagus cuniculus [16]
  level, % of control: 87%
[17]
  residual activity: 90%
[18]
  residual activity: 87%
[19]
  residual activity: 111%
[20]
  residual activity: 99%
[21]
  residual activity: 94%
Oryctolagus cuniculus [22]
  residual activity: 89%
Bos taurus [23]
  residual activity: 106%
[24]
  residual activity: 93%
[25]
  residual activity: 95%
Rattus norvegicus [26]
  residual activity: 97%
[27]
  residual activity: 86%
[28]
  residual activity: 95%
[29]
  residual activity: 96%
[30]
  residual activity: 80%
[31]
  residual activity: 82%
[32]
  residual activity: 86%
Oryctolagus cuniculus [33]
  level, % of control: 93%
